Where two headings read alike, the source gives them in different places.
Assays:
PV IRES = test: cells; assay type: cell-based, poliovirus
wild-type poliovirus = assay type: cell-based
[1] = Enterovirus C, HEK-293T, 20 h, read-out: WTPV mono luc IC50 (μM)
[2] = 1 μM compound, Hela cells infected with wild-type poliovirus at MOI 0.1, treated for one day, CPE score
[3] = 10 μM compound, Hela cells infected with wild-type poliovirus at MOI 0.1, treated for one day, CPE score
[4] = 100 μM compound, Hela cells infected with wild-type poliovirus at MOI 0.1, treated for one day, CPE score

Row | SMILES | IC50 (PV IRES; [1]) | WT-PV CPE (1 μM)* (wild-type poliovirus; [2]) | WT-PV CPE (10 μM)* (wild-type poliovirus; [3]) | WT-PV CPE (100 μM)* (wild-type poliovirus; [4]) | IC50 (PV IRES; read-out: WTPV mono luc IC50) | WT-PV CPE (1 μM)* (wild-type poliovirus) | WT-PV CPE (10 μM)* (wild-type poliovirus) | WT-PV CPE (100 μM)* (wild-type poliovirus)
1 | CCOc1ccc2c(C#N)cn(CC)c2c1 [compound 9, 6-ethoxy-1-ethyl-1H-indole-3-carbonitrile] | > 100 µM | 2 | 2 | 3 |  |  |  | 
2 | CCn1cc(C#N)c2ccc(OC)cc21 [compound 5, 1-ethyl-6-methoxy-1H-indole-3-carbonitrile] | 9 µM | 1 | 2 | 3 |  |  |  | 
3 | COc1ccc2c(C#N)c(C)n(-c3ccc4c(c3)OCO4)c2c1 [compound 24] |  |  |  |  | 1.5 µM | 2 | 2 | 3
4 | COc1ccc(-n2cc(C#N)c3ccc(OC)cc32)cc1 [compound 4] |  |  |  |  | 0.8 µM | 1 | 2 | 3
5 | CCn1cc(C#N)c2ccc(OC(C)C)cc21 [compound 10] |  |  |  |  | > 100 µM | 2 | 2 | 3
6 | CCn1c(-c2ccc(OC)cc2)c(C#N)c2ccc(OC)cc21 [compound 19] |  |  |  |  | 15 µM | 1 | 2 | 3
